Test results taken from patent EP4563146A1 (IRBM S.P.A., priority 2023, dated 2025).
Where two headings read alike, the source gives them in different places.

What was measured:
ZIKV replicon = experiment: ZIKV replication inhibition assay (NanoLuc replicon in Vero cells); conditions: 72 h
[1] = target: T1, West Nile Virus (WNV) NS2B-NS3 protease (West Nile virus, UniProt Q9Q6P4); experiment: WNV protease inhibition assay; format: biochemical; conditions: Table 4; letter codes for IC50
T1 construct: NS2B1423-1470); purchased R&D 2907-SE-020
Text: WNV protease inhibition assay

[2] = Zika virus, Vero, read-out: ZIKA Cell_Nanoluc
[3] = Zika virus, Vero, read-out: ZIKA Cell_Nanoluc, Vero cells with stable ZIKV replicon, 72 h, Nano-Glo readout

T1 sequence (Q9Q6P4 1423-1470): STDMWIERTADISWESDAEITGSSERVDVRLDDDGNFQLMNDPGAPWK
T1 sequence (Q9Q6P4 1506-1689): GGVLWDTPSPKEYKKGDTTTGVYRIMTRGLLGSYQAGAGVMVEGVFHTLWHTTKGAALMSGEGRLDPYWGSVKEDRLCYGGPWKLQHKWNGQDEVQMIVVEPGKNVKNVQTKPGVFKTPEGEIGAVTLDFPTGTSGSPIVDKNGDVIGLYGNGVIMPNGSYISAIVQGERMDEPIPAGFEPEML

Row | Compound | EC50 (ZIKV replicon; [2]) [nM] | IC50 [1] [nM] | EC50 (ZIKV replicon; [3]) [nM] | EC50 (ZIKV replicon; read-out: ZIKA Cell_Nanoluc, Vero cells with stable ZIKV replicon, Nano-Glo readout) [nM]
1 | Cc1ccccc1CC(=O)Nc1cc(NC(=O)[N-]c2c[n+]([C@H]3CC[C@H](CO)CC3)no2)cc(C(F)(F)F)c1 [Example 228, (3-((1R,4R)-4-(Hydroxymethyl)cyclohexyl)-1,2,3-oxadiazol-3-ium-5-yl)((3-(2-(o-tolyl)acetamido)-5-(trifluoromethyl)phenyl)carbamoyl)amide] | 100 to 1000 | 100 to 1000 |  | 
2 | Cc1ccccc1CC(=O)Nc1cc(NC(=O)[N-]c2c[n+]([C@H]3CC[C@H](C(=O)O)CC3)no2)cc(C(F)(F)F)c1 [Example 229, (3-((1R,4R)-4-Carboxycyclohexyl)-1,2,3-oxadiazol-3-ium-5-yl)((3-(2-(o-tolyl)acetamido)-5-(trifluoromethyl)phenyl)carbamoyl)amide] | 1000 to 20000 | 100 to 1000 |  | 
3 | Cc1ccccc1CC(=O)Nc1cc(NC(=O)[N-]c2c[n+]([C@@H]3CCCC(CO)C3)no2)cc(C(F)(F)F)c1 (stereo partly drawn) [Example 230, (3-((1R)-3-(Hydroxymethyl)cyclohexyl)-1,2,3-oxadiazol-3-ium-5-yl)((3-(2-(o-tolyl)acetamido)-5-(trifluoromethyl)phenyl)carbamoyl)amide] |  | < 100 | 1000 to 20000 | 
4 | CNC(=O)[C@@H]1CCC[C@@H]([n+]2cc([N-]C(=O)Nc3cc(NC(=O)Cc4ccccc4C)cc(C(F)(F)F)c3)on2)C1 [Example 231, (3-((1R,3R)-3-(Methylcarbamoyl)cyclohexyl)-1,2,3-oxadiazol-3-ium-5-yl)((3-(2-(o-tolyl)acetamido)-5-(trifluoromethyl)phenyl)-carbamoyl)amide] |  | < 100 | 1000 to 20000 | 
5 | CNC(=O)[C@H]1CCC[C@@H]([n+]2cc([N-]C(=O)Nc3cc(NC(=O)Cc4ccccc4C)cc(C(F)(F)F)c3)on2)C1 [Example 232, (3-((1R,3S)-3-(Methylcarbamoyl)cyclohexyl)-1,2,3-oxadiazol-3-ium-5-yl)((3-(2-(o-tolyl)acetamido)-5-(trifluoromethyl)phenyl)-carbamoyl)amide] |  | 100 to 1000 | 1000 to 20000 | 
6 | Cc1ncnc(C)c1-c1ccc(C[n+]2cc([N-]C(=O)N[C@H]3CC[C@H](C(F)(F)F)C3)on2)cc1 [Example 233, (3-(4-(4,6-Dimethylpyrimidin-5-yl)benzyl)-1,2,3-oxadiazol-3-ium-5-yl)(((1S,3S)-3-(trifluoromethyl)cyclopentyl)carbamoyl)amide] |  | 100 to 1000 | 100 to 1000 | 
7 | Cc1ccccc1CC(=O)Nc1cc(NC(=O)[N-]c2c[n+]([C@@H]3CCC[C@H](C(=O)N(C)C)C3)no2)cc(C(F)(F)F)c1 [Example 234, (3-((1R,3S)-3-(Dimethylcarbamoyl)cyclohexyl)-1,2,3-oxadiazol-3-ium-5-yl)((3-(2-(o-tolyl)-acetamido)-5-(trifluoromethyl)phenyl)-carbamoyl)amide] |  | 100 to 1000 | 1000 to 20000 | 
8 | Cc1ccccc1CC(=O)Nc1cc(NC(=O)[N-]c2c[n+]([C@@H]3CCC[C@@H](C(N)=O)C3)no2)cc(C(F)(F)F)c1 [Example 235, (3-((1R,3R)-3-Carbamoylcyclohexyl)-1,2,3-oxadiazol-3-ium-5-yl)((3-(2-(o-tolyl)acetamido)-5-(trifluoromethyl)phenyl)carbamoyl)amide] |  | < 100 |  | 100 to 1000
9 | O=C([N-]c1c[n+](Cc2ccc(-c3cncnc3)cc2)no1)Nc1ccnc(C(F)(F)F)c1 [Example 236, (3-(4-(Pyrimidin-5-yl)benzyl)-1,2,3-oxadiazol-3-ium-5-yl)((2-(trifluoromethyl)pyridin-4-yl)-carbamoyl)amide] |  | 100 to 1000 | 100 to 1000 | 
10 | Cc1nn(C)cc1-c1ccc(C[n+]2cc([N-]C(=O)Nc3ccnc(C(F)(F)F)c3)on2)cc1 [Example 237, (3-(4-(1,3-Dimethyl-1H-pyrazol-4-yl)benzyl)-1,2,3-oxadiazol-3-ium-5-yl)((2-(trifluoromethyl)-pyridin-4-yl)carbamoyl)amide] |  | 100 to 1000 | 1000 to 20000 | 
